# Results: PMC6691772, “Novel phthalimide based analogues: design, synthesis, biological evaluation, and molecular docking studies” (Journal of Enzyme Inhibition and Medicinal Chemistry, 2019)
# Columns and labels:
# S. pneumonia RCMB 010010 [1] = experiment: Minimum inhibitory concentration, modified agar well diffusion; assay type: cell-based; conditions: Streptococcus pneumoniae, RCMB010010, mean of three values, read-out: MIC (Mean ± SEM)
# E. coli RCMB 010052 [2] = experiment: Agar well diffusion, inhibition zone; assay type: cell-based, Escherichia coli; parameters: key to Mean diameter of inhibition zone (Mean ± SEM): –: -: No activity under the screening conditions; conditions: mean of three values
# E. coli DNA gyrase B = E. coli DNA gyrase B (Escherichia coli, UniProt P0AES6); experiment: In-vitro enzyme assay on DNA gyrase B; assay type: biochemical
# [3] = test system: P. aeruginosa RCMB 010043; experiment: Minimum inhibitory concentration, modified agar well diffusion; assay type: cell-based; conditions: Pseudomonas aeruginosa, RCMB010043, mean of three values, read-out: MIC (Mean ± SEM)
# [4] = test system: (THLE-2) normal liver cell line; experiment: Cytotoxic screening on normal liver cells; assay type: cell-based; conditions: Homo sapiens, mean of three values, read-out: IC50 (Mean ± SEM)
# VEGFR-2 = VEGFR-2 (Homo sapiens, UniProt P35968); experiment: In-vitro enzyme assay on VEGFR-2; assay type: biochemical; conditions: read-out: IC50 (Mean ± SEM)
# A. fumigatus RCMB 002568 [5] = experiment: Agar well diffusion, inhibition zone; assay type: cell-based, Aspergillus fumigatus; parameters: key to Mean diameter of inhibition zone (Mean ± SEM): –: -: No activity under the screening conditions; conditions: mean of three values
# E. coli RCMB 010052 [6] = experiment: Minimum inhibitory concentration, modified agar well diffusion; assay type: cell-based; conditions: Escherichia coli, RCMB010052, mean of three values, read-out: MIC (Mean ± SEM)
# C. albicans RCMB 005036 = experiment: Agar well diffusion, inhibition zone; assay type: cell-based, Candida albicans; parameters: key: –: -: No activity under the screening conditions; conditions: 1 mg/mL, mean of three values
# B. subtilis RCMB 010067 [7] = experiment: Minimum inhibitory concentration, modified agar well diffusion; assay type: cell-based; conditions: Bacillus subtilis, RCMB010067, mean of three values, read-out: MIC (Mean ± SEM)
# A. fumigatus RCMB 002568 [8] = experiment: as above; assay type: cell-based; conditions: Aspergillus fumigatus, RCMB002568, mean of three values, read-out: MIC (Mean ± SEM)
# [9] = test system: human liver cancer cell line (HepG-2); experiment: MTT anticancer assay; assay type: cell-based; conditions: HepG2, HePG-2 cancer liver cell line, mean of three values, read-out: IC50 (Mean ± SEM)
# B. subtilis RCMB 010067 [10] = experiment: Agar well diffusion, inhibition zone; assay type: cell-based, Bacillus subtilis; parameters: key to Mean diameter of inhibition zone (Mean ± SEM): –: -: No activity under the screening conditions; conditions: mean of three values
# [11] = test system: P. aeruginosa RCMB 010043; experiment: Agar well diffusion, inhibition zone; assay type: cell-based, Pseudomonas aeruginosa; parameters: key to Mean diameter of inhibition zone (Mean ± SEM): –: -: No activity under the screening conditions; conditions: mean of three values
# S. pneumonia RCMB 010010 [12] = experiment: Agar well diffusion, inhibition zone; assay type: cell-based, Streptococcus pneumoniae; parameters: key to Mean diameter of inhibition zone (Mean ± SEM): –: -: No activity under the screening conditions; conditions: mean of three values
# [13] = test system: tested bacterial and fungal strains; experiment: Antimicrobial screening, summary over all tested strains; assay type: cell-based; conditions: 1 mg/mL
# Excerpt: All bacterial and fungal strains were received from the culture collection of the Regional Center for Mycology and Biotechnology (RCMB), Al-Azhar University, Cairo, Egypt. All target derivatives were screened in-vitro opposite to various kinds of bacteria, Gram-positive bacteria (Streptococcus pneumoniae and Bacillus subtilis) and Gram-negative bacteria (Pseudomonas aeruginosa and Escherichia coli) and for their Antifungal activities against Aspergillus fumigatus and Candida albicans, respectively. Ampicillin and gentamycin were used as standard antibacterial drugs while amphotericin B was used as reference antifungal drug. The diameter of inhibition zone (mm) was measured for the biological activity using the diffusion technique. The promising compounds were further investigated to evaluate their antimicrobial activity expressed in terms of minimum inhibitory concentration (MIC) using the modified agar well diffusion method.
# The newly prepared targets were subjected for in-vitro antibacterial screening against Gram-positive bacteria (Streptococcus pneumonia and Bacillus subtilis) and Gram-negative bacteria (Pseudomonas aeruginosa and Escherichia coli). […] The compounds’ solutions of concentrations (1 mg/mL) were evaluated against the different microorganism’s and the inhibition zone (IZ) used diameter in mm for the biologically activity (agar well diffusion method).
# Sequence of VEGFR-2 (P35968 20-1356): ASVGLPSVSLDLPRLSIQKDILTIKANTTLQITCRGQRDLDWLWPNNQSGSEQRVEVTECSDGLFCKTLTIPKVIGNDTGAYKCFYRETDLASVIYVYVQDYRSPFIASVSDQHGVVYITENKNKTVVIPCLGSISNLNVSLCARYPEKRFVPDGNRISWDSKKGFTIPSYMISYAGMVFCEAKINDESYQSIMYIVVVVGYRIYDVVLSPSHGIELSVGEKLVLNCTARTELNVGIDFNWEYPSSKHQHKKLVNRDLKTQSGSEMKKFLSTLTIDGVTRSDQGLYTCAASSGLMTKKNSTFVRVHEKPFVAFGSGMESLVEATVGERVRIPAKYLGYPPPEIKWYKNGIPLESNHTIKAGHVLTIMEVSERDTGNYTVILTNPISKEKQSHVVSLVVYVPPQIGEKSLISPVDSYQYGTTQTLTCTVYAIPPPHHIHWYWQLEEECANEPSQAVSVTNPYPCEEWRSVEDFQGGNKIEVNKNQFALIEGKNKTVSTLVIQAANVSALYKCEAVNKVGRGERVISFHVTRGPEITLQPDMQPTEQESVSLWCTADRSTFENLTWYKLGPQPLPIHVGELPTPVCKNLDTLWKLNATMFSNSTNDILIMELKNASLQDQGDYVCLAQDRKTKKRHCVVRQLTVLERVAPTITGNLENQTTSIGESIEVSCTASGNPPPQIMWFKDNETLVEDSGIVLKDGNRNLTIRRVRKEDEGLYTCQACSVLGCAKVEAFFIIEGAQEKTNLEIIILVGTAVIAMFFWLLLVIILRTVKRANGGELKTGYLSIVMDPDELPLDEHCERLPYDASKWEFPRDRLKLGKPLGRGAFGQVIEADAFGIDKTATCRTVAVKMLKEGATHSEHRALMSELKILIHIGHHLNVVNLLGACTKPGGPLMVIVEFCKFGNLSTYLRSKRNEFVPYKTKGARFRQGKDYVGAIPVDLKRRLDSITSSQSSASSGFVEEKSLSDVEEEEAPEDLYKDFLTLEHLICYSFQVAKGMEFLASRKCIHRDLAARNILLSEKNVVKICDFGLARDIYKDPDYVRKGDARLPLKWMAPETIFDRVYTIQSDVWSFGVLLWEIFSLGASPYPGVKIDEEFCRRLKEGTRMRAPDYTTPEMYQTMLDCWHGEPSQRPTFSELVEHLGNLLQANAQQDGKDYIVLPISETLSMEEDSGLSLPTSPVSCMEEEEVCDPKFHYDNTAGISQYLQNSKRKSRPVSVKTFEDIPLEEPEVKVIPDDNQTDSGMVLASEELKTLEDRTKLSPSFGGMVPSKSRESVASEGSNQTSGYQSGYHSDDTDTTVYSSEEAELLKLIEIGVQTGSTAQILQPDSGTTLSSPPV
structure (smiles),measurement,setting,value
"NC1=NNC(=O)C1=NNN1C(=O)c2ccccc2C1=O [Compound 4, 2-(2-(3-Amino-5-oxo-1H-pyrazol-4(5H)-ylidene)hydrazinyl)isoindoline-1,3-dione]",MIC,S. pneumonia RCMB 010010 [1],1.95 ± 0.23 µg/mL
same,zone of inhibition at 1000 µg/mL,"E. coli RCMB 010052 [2]; Escherichia coli, RCMB010052, 1 mg/mL, read-out: Mean diameter of inhibition zone (Mean ± SEM)",24.5 ± 0.3 mm
same,IC50,E. coli DNA gyrase B,340 ± 630 nM
same,MIC,[3],0.98 ± 0.02 µg/mL
same,IC50,[4],874.31 ± 0.22 µg/mL
same,IC50,VEGFR-2,90 nM
same,zone of inhibition at 1000 µg/mL,"A. fumigatus RCMB 002568 [5]; Aspergillus fumigatus, RCMB002568, 1 mg/mL, read-out: Mean diameter of inhibition zone (Mean ± SEM)",23.1 ± 0.5 mm
same,MIC,E. coli RCMB 010052 [6],0.49 ± 0.39 µg/mL
same,Mean diameter of inhibition zone (Mean ± SEM),C. albicans RCMB 005036,–
same,MIC,B. subtilis RCMB 010067 [7],0.98 ± 0.42 µg/mL
same,MIC,A. fumigatus RCMB 002568 [8],1.95 ± 0.28 µg/mL
same,melting point,,289 to 290 °C
same,IC50,[9],4.22 ± 1.04 µg/mL
same,zone of inhibition at 1000 µg/mL,"B. subtilis RCMB 010067 [10]; Bacillus subtilis, RCMB010067, 1 mg/mL, read-out: Mean diameter of inhibition zone (Mean ± SEM)",25.1 ± 0.5 mm
same,zone of inhibition at 1000 µg/mL,"[11]; Pseudomonas aeruginosa, RCMB010043, 1 mg/mL, read-out: Mean diameter of inhibition zone (Mean ± SEM)",19.2 ± 0.5 mm
same,zone of inhibition at 1000 µg/mL,"S. pneumonia RCMB 010010 [12]; Streptococcus pneumoniae, RCMB010010, 1 mg/mL, read-out: Mean diameter of inhibition zone (Mean ± SEM)",23 ± 0.4 mm
"O=C1Cn2nc(O)c(N=NN3C(=O)c4ccccc4C3=O)c2N1 [Compound 5, 2-((6-Hydroxy-2-oxo-2,3-dihydro-1H-imidazo[1,2-b]pyrazol-7-yl)diazenyl)-isoindoline-1,3-dione]",Mean diameter of inhibition zone (Mean ± SEM),E. coli RCMB 010052 [2]; 1 mg/mL,–
same,IC50,[4],597.83 ± 0.14 µg/mL
same,Mean diameter of inhibition zone (Mean ± SEM),A. fumigatus RCMB 002568 [5]; 1 mg/mL,–
same,Mean diameter of inhibition zone (Mean ± SEM),C. albicans RCMB 005036,–
same,melting point,,157 to 158 °C
same,IC50,[9],31.8 ± 1.56 µg/mL
same,Mean diameter of inhibition zone (Mean ± SEM),B. subtilis RCMB 010067 [10]; 1 mg/mL,–
same,Mean diameter of inhibition zone (Mean ± SEM),[11]; 1 mg/mL,–
same,"antimicrobial activity, overall",[13],no antimicrobial activities
same,Mean diameter of inhibition zone (Mean ± SEM),S. pneumonia RCMB 010010 [12]; 1 mg/mL,–
